From paper PMC3646991 (Investigational new drugs, 2012)
Where “and” joins values, the source holds several entries; their conditions need not be identical. Equal entries are not always repeated.

Columns and labels:
advanced solid tumors = experiment: Tumor response; assay type: in vivo, human
[1] = Steady-state plasma triapine; assay type: in vivo, human; settings: for clearance: human, plasma
[2] = system: human ribonucleotide reductase M2 subunit (hRRM2); experiment: Circulating serum hRRM2 by ELISA; assay type: in vivo; settings: during treatment cycles 1 and 2, 21 of 28 patients
[3] = system: patients with advanced solid tumors; settings: human, in vivo, 4 weeks
tumor cell lines = settings: read-out: in vitro IC50 for tumor cell lines; cited from earlier work
[4] = triapine 0.01–1 mg/mL in 0.9 % sodium chloride, protected from light, room temperature or 2–8°C; cited from earlier work
[5] = system: patients with advanced solid tumors; experiment: Phase I dose escalation: dose-limiting toxicities, MTD and adverse events
[6] = cited from earlier work
[7] = of 15 patients with stable disease
[8] = of 30 evaluable patients, triapine + FDR gemcitabine
[9] = of 30 evaluable patients, triapine + FDR gemcitabine, RECIST 1.0
[10] = Arm A and B combined, dose 160, N=2, individual values
[11] = 36 patients, all dose levels, triapine + FDR gemcitabine

For `NC(=S)NN=Cc1ncccc1N` [triapine, 3-Aminopyridine-2-carboxaldehyde thiosemicarbazone], the “median time to progression” value (advanced solid tumors; 15 patients with stable disease, 95 % CI 84–115 days) was 111 days, the disease control rate (advanced solid tumors; 30 evaluable patients, SD + PR, triapine + FDR gemcitabine) was 53% and the “patients with prolonged stable disease more than 3 months” value (advanced solid tumors; [7]) was 12 patients. For the same compound, the “stable-disease patients who had previously progressed on gemcitabine” value (advanced solid tumors; [7]) was 7 patients, the “partial response (number of patients)” value (advanced solid tumors; [8]) was 1 patients and the “progressive disease (number of patients)” value (advanced solid tumors; [8]) was 14 patients. For the same compound, the “stable disease (number of patients)” value (advanced solid tumors; [8]) was 15 patients, the partial response (advanced solid tumors; [9]) was 3% and the stable disease (advanced solid tumors; [9]) was 50%. The “median time to tumor progression” value (advanced solid tumors; patients with SD) was ~4 months, the Css ([1]; Arm A and B combined, 31 patients, 75 to 160 mg over 24-hour i.v. infusion Day 1, mean ± SD) was 400 ± 140 nM and the Css ([1]; Arm A and B combined, dose 75, N=5, mean ± SD) was 370 ± 50 nM. For the same compound, the Css ([1]; Arm A and B combined, dose 90, N=15, mean ± SD) was 380 ± 180 nM, the Css ([1]; Arm A and B combined, dose 120, N=9, mean ± SD) was 440 ± 120 nM and the CL [1, 10] was 42.80 L/h. For the same compound, the Css [1, 10] was 520 nM and 460 nM, the “Css (range)” value ([1]; Arm A, 75 to 160 mg) was 240 to 820 nM and the Css ([1]; Arm A, all doses 75 to 160 mg, mean ± SD) was 430 ± 140 nM. It also gave a Css ([1]; Arm A, dose 75 (head prints mg/m^2), 24-h i.v. infusion, day 1 cycle 1, N=1) of 410 nM, a Css ([1]; Arm A, dose 90, 24-h i.v. infusion, N=5, mean ± SD) of 450 ± 230 nM and a Css ([1]; Arm A, dose 120, 24-h i.v. infusion, N=5, mean ± SD) of 390 ± 90 nM. For the same compound, the Css ([1]; Arm A, dose 160, 24-h i.v. infusion, N=2, individual values) was 520 nM and 460 nM, the CL ([1]; Arm A, dose 160, N=2, individual values) was 42.80 L/h and the “Css (range)” value ([1]; Arm B, 75 to 120 mg) was 190 to 720 nM. For the same compound, the Css ([1]; Arm B, all doses 75 to 120 mg, mean ± SD) was 380 ± 140 nM, the Css ([1]; Arm B, dose 75, 24-h i.v. infusion, N=4, mean ± SD) was 360 ± 50 nM and the Css ([1]; Arm B, dose 90, 24-h i.v. infusion, N=10, mean ± SD) was 350 ± 150 nM. For the same compound, the Css ([1]; Arm B, dose 120, 24-h i.v. infusion, N=4, mean ± SD) was 470 ± 170 nM, the “mean Css” value ([1]; females, n = 18) was 440 ± 160 nM and the clearance ([1]; intravenous, 75 mg, CL, Arm B, dose 75, N=4, mean ± SD) was 431 mL/min. The clearance ([1]; intravenous, 90 mg, CL, Arm A, dose 90, N=5, mean ± SD) was 497 mL/min, the clearance ([1]; intravenous, 90 mg, CL, Arm B, dose 90, N=10, mean ± SD) was 613 mL/min and the clearance ([1]; intravenous, 120 mg, CL, Arm A and B combined, dose 120, N=9, mean ± SD) was 596 mL/min. It also gave a clearance ([1]; intravenous, 120 mg, CL, Arm A, dose 120, N=5, mean ± SD) of 653 mL/min, a clearance ([1]; intravenous, 120 mg, CL, Arm B, dose 120, N=4, mean ± SD) of 560 mL/min and a clearance ([1]; intravenous, 160 mg, CL, Arm A, dose 160, N=2, individual values) of 635 mL/min. For the same compound, the clearance ([1]; intravenous, CL (range), Arm A and B combined, 31 patients, 75 to 160 mg) was 226 to 899 mL/min, the clearance ([1]; intravenous, CL (range), Arm A, 75 to 160 mg) was 226 to 804 mL/min and the clearance ([1]; intravenous, CL (range), Arm B, 75 to 120 mg) was 265 to 899 mL/min. The clearance ([1]; intravenous, CL, Arm A, all doses 75 to 160 mg, mean ± SD) was 580 mL/min, the clearance ([1]; intravenous, CL, Arm B, all doses 75 to 120 mg, mean ± SD) was 561 mL/min and the clearance ([1]; iv, CL, Arm A and B combined, 31 patients, 75 to 160 mg over 24-hour i.v. infusion Day 1, mean ± SD) was 562 mL/min. For the same compound, the “mean Css” value ([1]; males, n = 13) was 330 ± 80 nM, the “variability of Css and CL (coefficient of variation)” value ([1]; within and between dose groups) was “approximately 30%” and the “patients with decline in hRRM2 levels” value [2] was 75%. For the same compound, the “recommended phase II dose (RP2D)” value [3] was 90 mg, the IC50 (tumor cell lines) was 1000 to 2000 nM and the stability of admixture [4] was 96 h. The “Flu-Like Syndrome, Grade 1/2” value [5, 11] was 4 (11) N (%), the “Flu-Like Syndrome, Grade 3” value [5, 11] was 0 N (%) and the “Flu-Like Syndrome, Grade 4” value [5, 11] was 0 N (%). The “Infection, Grade 3” value [5, 11] was 3 (8) N (%), the “Infection, Grade 4” value [5, 11] was 0 N (%) and the “MTD (maximum tolerated dose)” value ([5]; triapine 24-hour infusion immediately followed by gemcitabine 1000 mg/m^2 (100-minute infusion), every 2 weeks of a 4-week cycle) was 90 mg.
In the case of `Nc1ccn([C@@H]2O[C@H](CO)[C@@H](O)C2(F)F)c(=O)n1` [gemcitabine], the steady-state plasma levels ([6]; gemcitabine at fixed-dose-rate 10 mg/m^2/min) is listed as 15 to 20 µmol/L and the “plasma gemcitabine concentration above which dFdCTP accumulation is saturated” value ([6]; peripheral blood mononuclear cells and circulating leukemic blasts) is listed as 15 to 20 µmol/L.
